In ChEMBL document CHEMBL3763154, “Dispirocyclopropyldehydrocostus lactone selectively inhibits acute myelogenous leukemia cells” (Bioorg Med Chem Lett, 2016):
One block for each compound: values may come before it. Calls of active or inactive are those of the source. The rule behind the calls is not given here.

How the values were obtained:
[1] = Cytotoxicity against human HL60 cells after 72 hrs by MTT assay; assay type: functional, cell-based; conditions: HL-60, 72 h
[2] = Cytotoxicity against human K562/A02 cells after 72 hrs by MTT assay; assay type: functional, cell-based; conditions: K562/A02, 72 h
K562 = assay: Cytotoxicity against human K562 cells after 72 hrs by MTT assay; assay type: functional, cell-based; conditions: K562, 72 h
[3] = Cytotoxicity against human HL60/ADR cells after 72 hrs by MTT assay; assay type: functional, cell-based
[4] = Cytotoxicity against human KG1a cells after 72 hrs by MTT assay; assay type: functional, cell-based; conditions: KG-1a
KG-1a [5] = assay: Induction of apoptosis in human KG1a cells assessed as viable cells at 5 uM after 24 hrs by Annexin V-FITC/PI staining based flow cytometry (Rvb=95.1%); assay type: functional; conditions: read-out: Activity
KG-1a [6] = assay: Induction of apoptosis in human KG1a cells assessed as viable cells at 50 uM after 24 hrs by Annexin V-FITC/PI staining based flow cytometry (Rvb=95.1%); assay type: functional; conditions: read-out: Activity
KG-1a [7] = assay: Induction of apoptosis in human KG1a cells assessed as late apoptotic cells at 10 uM after 24 hrs by Annexin V-FITC/PI staining based flow cytometry (Rvb=2.30%); assay type: functional
[8] = Cytotoxicity against human CD38 deficient CD34-positive leukemia stem/progenitor AML cells assessed as cell viability at 10 uM after 18 hrs by annexin staining based assay; assay type: functional; conditions: read-out: Activity
[9] = Cytotoxicity against human CD34-positive leukemia stem/progenitor AML cells assessed as cell viability at 5 uM after 18 hrs by annexin staining based assay; assay type: functional; conditions: read-out: Activity
KG-1a [10] = assay: Induction of apoptosis in human KG1a cells assessed as necrotic cells at 20 uM after 24 hrs by Annexin V-FITC/PI staining based flow cytometry (Rvb=0.227%); assay type: functional
[11] = Induction of apoptosis in human KG1a cells assessed as upregulation of caspase 9 cleavage at 2.5 to 10 uM after 24 hrs by Western blot analysis; assay type: functional, cell-based; conditions: KG-1a
KG-1a [12] = assay: Induction of apoptosis in human KG1a cells assessed as early apoptotic cells at 5 uM after 24 hrs by Annexin V-FITC/PI staining based flow cytometry (Rvb=2.40%); assay type: functional
KG-1a [13] = assay: Induction of apoptosis in human KG1a cells assessed as late apoptotic cells at 5 uM after 24 hrs by Annexin V-FITC/PI staining based flow cytometry (Rvb=2.30%); assay type: functional
KG-1a [14] = assay: Induction of apoptosis in human KG1a cells assessed as necrotic cells at 5 uM after 24 hrs by Annexin V-FITC/PI staining based flow cytometry (Rvb=0.227%); assay type: functional
KG-1a [15] = assay: Induction of apoptosis in human KG1a cells assessed as late apoptotic cells at 50 uM after 24 hrs by Annexin V-FITC/PI staining based flow cytometry (Rvb=2.30%); assay type: functional
KG-1a [16] = assay: Induction of apoptosis in human KG1a cells assessed as late apoptotic cells at 20 uM after 24 hrs by Annexin V-FITC/PI staining based flow cytometry (Rvb=2.30%); assay type: functional
KG-1a [17] = assay: Induction of apoptosis in human KG1a cells assessed as viable cells at 20 uM after 24 hrs by Annexin V-FITC/PI staining based flow cytometry (Rvb=95.1%); assay type: functional; conditions: read-out: Activity
[18] = Induction of apoptosis in human KG1a cells assessed as upregulation of caspase 3 cleavage at 2.5 to 10 uM after 24 hrs by Western blot analysis; assay type: functional, cell-based; conditions: KG-1a
[19] = Cytotoxicity against human CD34-positive leukemia stem/progenitor AML cells assessed as cell viability at 10 uM after 18 hrs by annexin staining based assay; assay type: functional; conditions: read-out: Activity
[20] = Cytotoxicity against human CD38 deficient CD34-positive leukemia stem/progenitor AML cells assessed as cell viability at 5 uM after 18 hrs by annexin staining based assay; assay type: functional; conditions: read-out: Activity
[21] = Aqueous solubility of compound; assay type: physicochemical; conditions: buffer
KG-1a [22] = assay: Induction of apoptosis in human KG1a cells assessed as early apoptotic cells at 10 uM after 24 hrs by Annexin V-FITC/PI staining based flow cytometry (Rvb=2.40%); assay type: functional
KG-1a [23] = assay: Induction of apoptosis in human KG1a cells assessed as necrotic cells at 10 uM after 24 hrs by Annexin V-FITC/PI staining based flow cytometry (Rvb=0.227%); assay type: functional
[24] = Induction of apoptosis in human KG1a cells assessed as upregulation of Bax expression at 2.5 to 10 uM after 24 hrs by Western blot analysis; assay type: functional, cell-based; conditions: KG-1a
[25] = Cytotoxicity against human hematopoietic stem cells after 24 hrs by MTT assay; assay type: cell-based
[26] = Cytotoxicity against human AML cells assessed as cell viability at 10 uM after 18 hrs by annexin staining based assay; assay type: functional; conditions: read-out: Activity
[27] = Cytotoxicity against human AML cells assessed as cell viability at 5 uM after 18 hrs by annexin staining based assay; assay type: functional; conditions: read-out: Activity
KG-1a [28] = assay: Induction of apoptosis in human KG1a cells assessed as early apoptotic cells at 50 uM after 24 hrs by Annexin V-FITC/PI staining based flow cytometry (Rvb=2.40%); assay type: functional
KG-1a [29] = assay: Induction of apoptosis in human KG1a cells assessed as early apoptotic cells at 20 uM after 24 hrs by Annexin V-FITC/PI staining based flow cytometry (Rvb=2.40%); assay type: functional
[30] = Induction of apoptosis in human KG1a cells assessed as upregulation of PARP cleavage at 2.5 to 10 uM after 24 hrs by Western blot analysis; assay type: functional, cell-based; conditions: KG-1a
KG-1a [31] = assay: Induction of apoptosis in human KG1a cells assessed as necrotic cells at 50 uM after 24 hrs by Annexin V-FITC/PI staining based flow cytometry (Rvb=0.227%); assay type: functional
KG-1a [32] = assay: Induction of apoptosis in human KG1a cells assessed as viable cells at 10 uM after 24 hrs by Annexin V-FITC/PI staining based flow cytometry (Rvb=95.1%); assay type: functional; conditions: read-out: Activity
[33] = Selectivity index, ratio IC50 for human KG1a cells to IC50 for human HL60 cells; assay type: functional
HL-60 = assay: Selectivity index, ratio IC50 for human […] cells; assay type: functional
KG-1a [34] = assay: Antitumor activity against human KG1a cells xenografted in SCID mice assessed as reduction in tumor weight at 50 mg/kg, po administered every other day for 7 times measured after 1 month; assay type: functional, organism-based
Mus musculus = assay: Toxicity in SCID mouse xenografted with KG1a cells assessed as effect on body weight at 50 mg/kg, po administered every other day for 7 times; assay type: organism-based; conditions: in vivo
KG-1a [35] = assay: Antitumor activity against human KG1a cells xenografted in SCID mice assessed as inhibition of tumor growth at 50 mg/kg, po administered every other day for 7 times; assay type: functional, organism-based

Compound: C=C1CC[C@H]2C(=C)CC[C@H]3C(=C)C(=O)O[C@@H]3[C@@H]12 [DEHYDROCOSTUSLACTONE]
- IC50 [1]: 3.7 µM
- IC50 [2]: 6.6 µM
- IC50 (K562): 5.3 µM
- IC50 [3]: 5.1 µM
- IC50 [4]: 10.5 µM

- solubility [21]: Insoluble
Compound: C=C1C(=O)O[C@@H]2[C@@H]3[C@@H](CCC34CC4)C3(CC[C@@H]12)CC3
- viability at 5 µM (KG-1a [5]): 82.5%
- viability at 50 µM (KG-1a [6]): 1.32%
- Activity (KG-1a [7]): 9.13%
- IC50 [1]: 5.7 µM
- viability at 10 µM [8]: 0.46%
- IC50 [2]: 7.7 µM
- viability at 5 µM [9]: 42.2%
- Activity (KG-1a [10]): 3.05%
- IC50 (K562): 7 µM
- Activity [11]: Active
- Activity (KG-1a [12]): 6.54%
- Activity (KG-1a [13]): 3.51%
- Activity (KG-1a [14]): 0.21%
- Activity (KG-1a [15]): 49%
- IC50 [3]: 6.7 µM
- Activity (KG-1a [16]): 44.4%
- viability at 20 µM (KG-1a [17]): 2%
- Activity [18]: Active
- viability at 10 µM [19]: 1.9%
- viability at 5 µM [20]: 24.2%
- IC50 [4]: 7.6 µM
- Activity (KG-1a [22]): 23.3%
- Activity (KG-1a [23]): 1.05%
- Activity [24]: Active
- IC50 [25]: > 50 µM
- viability at 10 µM [26]: 6.5%
- viability at 5 µM [27]: 50.7%
- Activity (KG-1a [28]): 45%
- Activity (KG-1a [29]): 49.9%
- Activity [30]: Active
- Activity (KG-1a [31]): 4.71%
- viability at 10 µM (KG-1a [32]): 66.5%

Compound: COc1cccc2c1C(=O)c1c(O)c3c(c(O)c1C2=O)C[C@@](O)(C(=O)CO)C[C@@H]3O[C@H]1C[C@H](N)[C@H](O)[C@H](C)O1.Cl [DOXORUBICIN HYDROCHLORIDE]
- IC50 [1]: 0.016 µM
- IC50 [2]: 10.6 µM
- Ratio IC50 [33]: 50
- IC50 [3]: 4.89 µM
- Ratio IC50 (HL-60): 300
- IC50 [4]: 0.82 µM

Compound: CN(C)C[C@@H]1C(=O)O[C@H]2[C@H]1CCC1(CC1)[C@@H]1CCC3(CC3)[C@H]21.O=C(O)/C=C/C(=O)O
- Activity (KG-1a [34]): Active
- Activity (Mus musculus): Non-toxic
- TGI (KG-1a [35]): Active
